The numbers were not newly measured in US20150182483A1 (priority 2014, published 2015), which cites them from elsewhere.

The structures appear in SMILES notation.

The test system of series [1] is chemical diabetes induced by streptozotocin.
For series [2] the following is noted: prior art, Kalogeropoulou et al. 2009.
For series [3] the following is noted: intravenous, subjects.
For series [4] the following is noted: humans.
For series [5] the following is noted: pH at which two predominant microspecies have net charge of zero.
[6] abbreviates: D-lysine treatment with streptozotocin diabetes.

Consider `NCCCC[C@@H](N)C(=O)O` [D-lysine], for which, in series [1] (setting [6]), the Blood glucose is 25.1 mmol/L, the Glycated lens proteins was 4.90%, the Glycated serum proteins is on record as 1.4% and the HbA1 was 3.0%. In series [1] (setting [6]), the Urinary d-lysine was 15.9 mmol/L. In series [1] (animal model), the Excretion result is reported as “excreted in the urine” and the Nephrotoxicity result is reported as “not nephrotoxic”. Moreover, the “non-enzymatic glycation of hemoglobin, lens proteins and serum proteins” value in series [1] (animal model of chemical diabetes induced by streptozotocin) is reported as “decrease”.
Consider `NCCCC[C@H](N)C(=O)O` [L-lysine], for which the “Response (hypoglycemic effect)” value in series [2] is recorded as “Lower blood glucose”. Further, in series [3], the “Effect on blood ammonia” value is given as “without significantly increasing blood ammonia” and the “Effect on blood glucose” value was “lowers blood glucose”. Moreover, the “Proposed upper limit (LD 50 not firmly established)” value in series [4] was 300-400 mg×kg^−1xd^−1. Further, in series [5], the “Isoelectric point (pI)” value is “approximately 9.7”.
